# “And” between values parts separate entries of the source, which are not always exact repeats. Equal entries are not always repeated.
# Tests used:
# Type in all cases: in vivo, mouse
# [1] = test system: leukemogenicity of pre-LSCs; assay: Time to leukemia of recipients injected with thymocytes from treated Lmo2^Tg mice; details: for Time to leukemia / Time to leukemia (days): * non-leukemic at endpoint
# Description: Fold expansion was calculated by dividing the absolute output number of donor-derived DN3a cells harvested at the experimental endpoint by the respective number of DN3a thymocytes injected in each recipient. […] Leukemia-propagating cell frequency was calculated by applying Poisson statistics using the ELDA: Extreme Limiting Dilution Analysis software (Walter and Eliza Hall Institute Bioinformatics, Parkville VIC, Australia)[96]. Limiting dilution transplantations were performed independently from any other transplantation assays, using thymocytes from three different Lmo2^Tg mice for each cohort. […] Log-rank (Mantel -Cox)
# [2] = test system: DN3a T-cell progenitors of Lmo2^Tg mice; assay: Thymocyte populations (DN3a, DN1-DN4) in the thymus of treated Lmo2^Tg mice
# Description: The synthesis of Dynole 34-2 and Dyngo 4a compounds was performed as previously described[32],[33] and was kindly provided by A. McCluskey. For in vitro assays, the specific Dynamin inhibitors Dynole 34-2, Dyngo 4a and Dynasore (#S8047, Selleckchem, Sapphire Bioscience Pty Ltd, Redfern NSW, Australia) were made as stock solutions in 100% dimethyl sulfoxide (DMSO), which were stored frozen. These compounds were diluted in 50% v/v DMSO/20 mM Tris-HCl pH 7.4 immediately prior to use. For in vivo administration, Dynole 34-2 was resuspended in pre-warmed HRC#5 (Pharmatek, San Diego CA, USA) 1 : 9 phosphate-buffered saline (PBS) 1× pH 7.4 at 37 °C, and sonicated 10 times for 30 s using a Bioruptor Plus (Biogenode) immediately prior to injection at 30 mg/kg, twice daily.
# Flow cytometry analyses were performed as previously described[10],[86] on single-cell suspensions stained using BD Pharmingen antibodies (BD Australia, North Ryde NSW, Australia) against mouse CD4 (RM4-5), CD8 (53-6.7), CD25 (PC61.5), CD44 (IM7), CD45.1 (A20), CD45.2 (104), Thy1.2 (53-2.1; #561616), TCRβ (H57-597), CD117 (ACK45), CD135 (A2F10.1), CD150 (TC15-12F12.2; #562373), B220 (RA3-6B2; #563708), CD3 (145-2C11; #563004), CD19 (ID3; #557655), Gr-1 (RB6-8C5; #563299 and #565033), CD11b (M1/70; #563015 and #560455), Ter119 (Ter119; #565523 and #557909), Sca-1 (D7; #558160) and an eBioscience antibody (eBioscience, Invitrogen) against mouse NOTCH1 (22E5). DN3 populations and IL-7R were stained using BioLegend antibodies (Australian Biosearch, Balcatta WA, Australia) against mouse CD28 (E18) and CD127 (A7R34), respectively. Apoptosis was measured using an antibody against AnnexinV (#556420, BD Australia) and the […] Sytox Blue (BD Australia) following the manufacturer’s protocol.
# All experiments were pre-approved by the AMREP Animal Ethics Committee. The current study was performed by using the previously described CD2-Lmo2 (Lmo2^Tg) mouse model. Mice cohorts were generated by cross-breeding with the Lck-Notch1-IC9 (N1-ICD^Tg)[45] generously given by T. Hoang[86], the Lck-STAT5b-CA (STAT5-CA^Tg)[88] kindly given by M.P. McCormack, the Mx1-Cre transgenic (Mx)[89] and the ROSA26-YFP Cre-reporter (YFP)[90] mouse strains. All mouse lines were backcrossed onto a C57BL/6J background for ten generations and maintained in pathogen-free conditions according to institutional animal care guidelines.
# [3] = test system: pre-LSCs within the DN3a thymocyte population of Lmo2^Tg mice; assay: Limiting dilution transplantation assay, pre-LSC frequency
# Description: Single-cell suspension of murine thymus cells were intravenously injected into sublethally irradiated (650 Rads) isogenic Ly5.1 (Cd45.1) mice. Fold expansion was calculated by dividing the absolute output number of donor-derived DN3a cells harvested at the experimental endpoint by the respective number of DN3a thymocytes injected in each recipient. Limiting dilution transplantations were performed as described, by injecting various doses (10^1 to 10^6) of thymocytes per recipient, and mice were scored positive when T-cell lineage reconstitution assessed 6 weeks after transplantation was >1%. Leukemia-propagating cell frequency was calculated by applying Poisson statistics using the ELDA: Extreme Limiting Dilution Analysis software (Walter and Eliza Hall Institute Bioinformatics, Parkville VIC, Australia)[96]. Limiting dilution transplantations were performed independently from any other transplantation assays, using thymocytes from three different Lmo2^Tg mice for each cohort. Kaplan–Meier survival and statistical analysis were performed using GraphPad Prism. 6.0 software (GraphPad Software Inc, San Diego CA, USA).
# [4] = thymus of treated Lmo2^Tg mice, absolute numbers vs vehicle (response to reviewers)
# [5] = thymus of treated Lmo2^Tg mice, individual mice
structure (smiles),measurement,setting,value
"CCCCCCCCNC(=O)C(C#N)=Cc1cn(CCCN(C)C)c2ccccc12 [Dynole 34-2, 2-Cyano-N-octyl-3-(1-(3-dimethylaminopropyl)-1H-indol-3-yl)-acrylamide]",Time to leukemia,[1]; Supplementary Figure 3h,138 days and 132 days and 116 days and 149 days
same,Time to leukemia (days),[1]; Supplementary Figure 3h,> 210* days
same,Time to leukemia,[1]; Supplementary Figure 4d,170 days and 151 days and 119 days and 142 days
same,Time to leukemia (days),[1]; Supplementary Figure 4d,> 210* days
same,leukemogenic potential of pre-LSCs / progression to leukemia in recipients,"[1]; recipients of thymocytes from treated Lmo2^Tg mice, result in words",delayed progression to leukemia
same,reduction in the numbers of DN3a thymocytes,"[2]; Lmo2^Tg mice at end of treatment, vs vehicle, in words",tenfold reduction
same,Absolute numbers DN3a cells,"[2]; thymus of 6-week-old Lmo2^Tg mice after two rounds of treatment, individual animals (Fig 4a)",1380000 and 2260000 and 730000 and 1690000 and 1100000
same,Absolute numbers DN3a cells,"[2]; thymus of 6-week-old Lmo2^Tg mice, 30 mg/kg i.p. twice daily, 5 days on 2 consecutive weeks, individual animals (Fig 3a), 30 mg/kg",197000 and 290000 and 173000 and 171000 and 222000 and 359000
same,"decrease in DN3a thymocytes when combined with VXL, as compared to VXL alone",[2]; thymus of treated Lmo2^Tg mice (response to reviewers),75%
same,decrease in DN1 cells,[2]; [4],56%
same,decrease in DN2 cells,[2]; [4],45%
same,decrease in DN3a cells,[2]; [4],64%
same,increase in DN4 cells,[2]; [4],134%
same,"Proportion of DN cells (% DN), DN1",[2]; [5],1.8 % DN and 1.3 % DN and 3.9 % DN and 6.4 % DN and 2.8 % DN
same,"Proportion of DN cells (% DN), DN2",[2]; [5],1 % DN and 0.2 % DN and 0.4 % DN and 0.1 % DN and 0.5 % DN
same,"Proportion of DN cells (% DN), DN3",[2]; [5],18.3 % DN and 14.1 % DN and 34.4 % DN and 43.5 % DN and 16.6 % DN
same,"Proportion of DN cells (% DN), DN4",[2]; [5],79.5 % DN and 84.5 % DN and 61.1 % DN and 49.1 % DN and 80.5 % DN
same,"Limiting dilution assay, Response (positive recipients)","[3]; cell dose 106, 9 recipients tested",0
same,"Limiting dilution assay, Response (positive recipients)","[3]; cell dose 1060, 9 recipients tested",0
same,"Limiting dilution assay, Response (positive recipients)","[3]; cell dose 10602, 6 recipients tested",3
same,"Limiting dilution assay, Response (positive recipients)","[3]; cell dose 106020, 6 recipients tested",5
same,fold decrease in pre-LSC frequency,[3]; treated Lmo2^Tg mice vs vehicle,100 fold

# Source: PMC7719179, “Small molecule inhibition of Dynamin-dependent endocytosis targets multiple niche signals and impairs leukemia stem cells” (Nature Communications, 2020)
